Legend:
tyrosinase [1] = assay: Tyrosinase activity (DOPA oxidase assay) in lysates of B16-F1 cells cultured with free or liposome-included inhibitor; format: cell-based, mouse; settings: 24 h after washout following 72 h incubation
Procedure: B16-F1 mouse melanoma cells (European Collection of Animal Cell Culture, Porton Down, U.K.) were cultured in RPMI 1640 medium (Life Technologies, Paisley, Scotland, and U.K.) as described in ref. [8]. Cells were incubated with liposomes for 72 h at 37° C. and their viability was determined by using the trypan blue staining test. Following the incubation time, cells were harvested, washed three times with PBS and lysed in 10 mM phosphate buffer, pH 6.8 containing 1% Nonidet P40 and proteinase inhibitors.
Tyrosinase activity was measured by the DOPA oxidase assay that measures the conversion of DOPA to DOPAchrome via DOPA quinone. Briefly, 50 μl of cell lysate was mixed with 950 μl of 1 mM DOPA in 0.1 M sodium phosphate buffer, pH 7.2 at 37° C. and the reaction was followed spectrophotometrically at 475 nm by the chromogenic appearance of DOPAchroine from 1 mM DOPA (ref. [8]).
To investigate the uptake of liposome encapsulated NB-DNJ in living cells,.the activity of tyrosinase was monitored, a constitutively expressed enzyme of melanoma cells, highly sensitive to small variations of the NB-DNJ concentration in the culture medium (ref. [8]). Inhibition of N-glycosylation processing in the presence of NB-DNJ yields a tyrosinase polypeptide caring Glc3Man7-9GlcNAc glycans. […]

[2] = test system: B16-F1 mouse melanoma cells; assay: Pigmentation of melanoma cells, visual inspection; format: cell-based; settings: 0.5 mM free NB-DNJ, 72 h
Procedure: Cells were treated with for 72 h in the presence and absence of NB-DNJ free or included in liposomes, transferred into a microtiter plate and pelleted by centrifugation.
Tyrosinase is the regulatory enzyme of melanogenesis in melanocytes. Therefore, inactivation of tyrosinase is associated with lack of pigmentation due to the absence of melanin synthesis in specialized cells. To correlate the results on tyrosinase activity, with the melanin content, the pigmentation of the melanoma cells treated With liposomes was observed. […] The lack of pigmentation in melanoma cells treated with minute amounts of liposomal NB-DNJ correlates well with the abolishment of tyrosinase activity as a result of N-glycosylation processing inhibition, reinforcing the efficiency of the cytoplasmic delivery of the drug encapsulated in liposomes.

tyrosinase [3] = settings: B16 mouse melanoma cells, 0.5 mM-5 mM free NB-DNJ (ref. [6]); cited from earlier work

## CCCCN1C[C@H](O)[C@@H](O)[C@H](O)[C@H]1CO [NB-DNJ, N-butyldeoxynojirimycin]
Tyrosinase [1]
  recovery of tyrosinase activity: 75%
[2]
  pigmentation: dramatic decrease
Tyrosinase [3]
  tyrosinase activity: dramatic decrease

Reference: patent US20030124160A1, “Targeted drug delivery” (priority 2001, published 2003)
